11 molecules from patent US8486962B2, “Antifungal agents” (F2G Ltd., priority 2005, dated 2013) can be followed below.

For assay [1], the system named is Aspergillus fumigatus AF293. Description: MIC, YAG medium, Aspergillus fumigatus AF293. The assay is classed as cell-based. The settings on record: YAG medium; for MIC: Aspergillus fumigatus, AF293, read-out: MIC A Fum. 293. The procedure, abridged: (§1)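 Doubling dilutions (50-0.05 mg/L) were tested against Candida in RPMI with 2% glucose and 0.135M MOPS, pH7.0, at 1-2×10^3 cfu/ml for 24-48 hrs, 35° C; MIC is >80% inhibition at OD485. Aspergillus in YAG medium at 1-2×10^4 cfu/ml for 24 hrs was scored at >70% inhibition; low MICs were retested over 0.5-0.0005 mg/L.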

Another assay has as its system Aspergillus terreus. Description: MIC, YAG medium, Aspergillus terreus. The settings on record: YAG medium; for MIC: Aspergillus terreus. The assay is classed as cell-based. The procedure, abridged: as §1
The test system of assay [2] is Aspergillus fumigatus AF210. Description: MIC, YAG medium, Aspergillus fumigatus AF210. The assay is classed as cell-based. Particulars: YAG medium; for MIC: Aspergillus fumigatus, AF210, read-out: MIC A Fum. 210. The procedure, abridged: as §1
A further assay concerns Aspergillus flavus. In words: MIC, YAG medium, Aspergillus flavus. The assay is classed as cell-based. The settings on record: YAG medium; for MIC: Aspergillus flavus. The method, boiled down: as §1
The next assay deals with Aspergillus niger. Description: MIC, YAG medium, Aspergillus niger. The assay is classed as cell-based. The settings on record: YAG medium; for MIC: Aspergillus niger. The method, boiled down:
as §1

For a further assay, the system named is A Terreus 49. Description: MIC, YAG medium, A Terreus 49. The assay is classed as cell-based, Aspergillus terreus. Particulars: YAG medium; for MIC: Aspergillus terreus, read-out: MIC A Terreus 49. The procedure, abridged: as §1

Usually MIC stands for the lowest concentration found to suppress growth.

≈ marks a conversion by molar mass, not a printed value. Like-named read-outs stand apart in the source and are kept apart here.

For the molecule `COc1ccc(NC(=O)C(=O)c2c(-c3ccc(F)cc3)cc3ccccn23)c(OC)c1` [Example 149, N-(2,4-Dimethoxy-phenyl)-2-[2-(4-fluoro-phenyl)-indolizin-3-yl]-2-oxo-acetamide], the MIC is 0.5 µg/mL (≈ 1.19 µM) in assay [1]; 0.06 µg/mL (≈ 0.143 µM) in the assay on Aspergillus terreus (read-out: MIC A Terreus 4); 1.6 µg/mL (≈ 3.82 µM) in assay [2]; 0.031 µg/mL (≈ 0.0741 µM) in the assay on Aspergillus flavus (read-out: MIC A Flavus 01); 0.031 µg/mL (≈ 0.0741 µM) with Aspergillus niger (read-out: MIC A Niger 1); 31 ng/mL (≈ 0.0741 µM) in the assay with A Terreus 49.
Regarding `O=C(Nc1ccc(N2CCCCC2)cc1)C(=O)c1c(-c2ccccc2)cc2ccccn12` [Example 307, 2-Oxo-2-(2-phenyl-indolizin-3-yl)-N-(4-piperidin-1-yl-phenyl)-acetamide], the minimum inhibitory concentration (MIC) in assay [1] came out at 0.008 µg/mL (≈ 0.0189 µM); in the assay with Aspergillus terreus (read-out: MIC A Terreus) it was 0.002 µg/mL (≈ 0.00472 µM); in assay [2] it was 0.05 µg/mL (≈ 0.118 µM); in the assay on Aspergillus flavus (read-out: MIC A Flavus), 0.008 µg/mL (≈ 0.0189 µM); with Aspergillus niger (read-out: MIC A Niger) it was 0.008 µg/mL (≈ 0.0189 µM); in the assay on A Terreus 49 it was 1 ng/mL (≈ 0.00236 µM).
As for `COc1ccc(NC(=O)C(=O)c2c(-c3ccccc3)cc3ccccn23)c(OC)c1` [Example 145, N-(2,4-Dimethoxy-phenyl)-2-oxo-(2-phenyl-indolizin-3-yl)-acetamide], the MIC amounted to 0.5 µg/mL (≈ 1.25 µM) in assay [1]; 0.031 µg/mL (≈ 0.0774 µM) in the assay with Aspergillus terreus (read-out: MIC A Terreus 4); 0.5 µg/mL (≈ 1.25 µM) in assay [2]; 0.031 µg/mL (≈ 0.0774 µM) with Aspergillus flavus (read-out: MIC A Flavus 01); 0.031 µg/mL (≈ 0.0774 µM) in the assay with Aspergillus niger (read-out: MIC A Niger 1); 4 ng/mL (≈ 0.00999 µM) in the assay on A Terreus 49.
As to `COc1ccc(NC(=O)C(=O)c2c(-c3cccc(C)c3)cc3ccccn23)cc1` [Example 233, N-(4-Methoxy-phenyl)-2-oxo-2-(2-m-tolyl-indolizin-3-yl)-acetamide], the MIC is 0.25 µg/mL (≈ 0.65 µM) in assay [1]; 0.008 µg/mL (≈ 0.0208 µM) in the assay on Aspergillus terreus (read-out: MIC A Terreus 4); 0.25 µg/mL (≈ 0.65 µM) in assay [2]; 0.004 µg/mL (≈ 0.0104 µM) with Aspergillus flavus (read-out: MIC A Flavus 01); 0.06 µg/mL (≈ 0.156 µM) in the assay on Aspergillus niger (read-out: MIC A Niger 1); 4 ng/mL (≈ 0.0104 µM) in the assay with A Terreus 49.
For the molecule `Cc1ccc(NC(=O)C(=O)c2c(-c3ccccc3)cc3ccccn23)cc1` [Example 135, 2-Oxo-2-(2-phenyl-indolizin-3-yl)-N-p-tolyl-acetamide], the MIC in assay [1] turned out to be 0.12 µg/mL (≈ 0.339 µM); in the assay on Aspergillus terreus (read-out: MIC A Terreus 4), 0.008 µg/mL (≈ 0.0226 µM); in assay [2], 0.062 µg/mL (≈ 0.175 µM); in the assay on Aspergillus flavus (read-out: MIC A Flavus 01) it was 0.015 µg/mL (≈ 0.0423 µM); in the assay on Aspergillus niger (read-out: MIC A Niger 1) it was 0.015 µg/mL (≈ 0.0423 µM); with A Terreus 49, 2 ng/mL (≈ 0.00564 µM).
For the molecule `O=C(Nc1ccc(Nc2nccs2)cc1)C(=O)c1c(-c2ccccc2)cc2ccccn12` [Example 285, 2-Oxo-2-(2-phenyl-indolizin-3-yl)-N-[4-(thiazol-2-ylamino)-phenyl]-acetamide], the minimal inhibitory concentration (MIC) in assay [1] was 0.4 µg/mL (≈ 0.912 µM); in the assay on Aspergillus terreus (read-out: MIC A Terreus 4), 0.05 µg/mL (≈ 0.114 µM); in assay [2], 0.8 µg/mL (≈ 1.82 µM); in the assay with Aspergillus flavus (read-out: MIC A Flavus 01) it was 0.05 µg/mL (≈ 0.114 µM); in the assay with Aspergillus niger (read-out: MIC A Niger 1), 0.05 µg/mL (≈ 0.114 µM); with A Terreus 49 it was 30 ng/mL (≈ 0.0684 µM).
In the case of `CC1(c2ccc(NC(=O)C(=O)c3c(-c4ccccc4)cc4ccccn34)cc2)OCCO1` [Example 264, N-[4-(2-Methyl-[1,3]dioxolan-2-yl)-phenyl]-2-oxo-2-(2-phenyl-indolizin-3-yl)-acetamide], the MIC in assay [1] amounted to 0.05 µg/mL (≈ 0.117 µM); in the assay with Aspergillus terreus (read-out: MIC A Terreus 4) it was 0.015 µg/mL (≈ 0.0352 µM); in assay [2], 0.05 µg/mL (≈ 0.117 µM); in the assay on Aspergillus flavus (read-out: MIC A Flavus 01) it was 0.05 µg/mL (≈ 0.117 µM); in the assay on Aspergillus niger (read-out: MIC A Niger 1) it was 0.05 µg/mL (≈ 0.117 µM); with A Terreus 49, 8 ng/mL (≈ 0.0188 µM).
`CC(=NO)c1ccc(NC(=O)C(=O)c2c(-c3ccccc3)cc3ccccn23)cc1` (mixture of isomers) [Example 250, N-(4-{1-[(E/Z)-Hydroxyimino]-ethyl}-phenyl)-2-oxo-2-(2-phenyl-indolizin-3-yl)-acetamide]: the “MIC A Fum. 293” value in assay [1] amounted to 0.2 mg/L. Besides, in the assay on Aspergillus terreus, the “MIC A Terreus 4” value amounted to 0.1 mg/L. Moreover, the “MIC A Fum. 210” value in assay [2] was 0.8 mg/L. Further, the “MIC A Flavus 01” value in the assay with Aspergillus flavus amounted to 0.1 mg/L. For the same molecule, the “MIC A Niger 1” value in the assay on Aspergillus niger is listed as 0.05 mg/L. The “MIC A Terreus 49” value against A Terreus 49 is listed as 0.05 mg/L.
With `COc1ccccc1NC(=O)C(=O)c1c(-c2ccccc2)cc2ccccn12` [Example 137, N-(2-Methoxy-phenyl)-2-oxo-2-(2-phenyl-indolizin-3-yl)-acetamide], the MIC in assay [1] was determined as 0.2 µg/mL (≈ 0.54 µM); in the assay with Aspergillus terreus (read-out: MIC A Terreus 4), 0.06 µg/mL (≈ 0.162 µM); in assay [2], 0.5 µg/mL (≈ 1.35 µM); in the assay on Aspergillus flavus (read-out: MIC A Flavus 01), 0.125 µg/mL (≈ 0.337 µM); in the assay with Aspergillus niger (read-out: MIC A Niger 1), 0.062 µg/mL (≈ 0.167 µM); in the assay with A Terreus 49, 60 ng/mL (≈ 0.162 µM).
In the case of `COc1ccc(NC(=O)C(=O)c2c(-c3cccs3)cc3ccccn23)cc1` [Example 148, N-(4-Methoxy-phenyl)-2-oxo-2-(2-thiophen-2-yl-indolizin-3-yl)-acetamide], the MIC came to 0.12 µg/mL (≈ 0.319 µM) in assay [1]; 0.008 µg/mL (≈ 0.0213 µM) in the assay with Aspergillus terreus (read-out: MIC A Terreus 4); 0.12 µg/mL (≈ 0.319 µM) in assay [2]; 0.008 µg/mL (≈ 0.0213 µM) with Aspergillus flavus (read-out: MIC A Flavus 01); 0.062 µg/mL (≈ 0.165 µM) in the assay with Aspergillus niger (read-out: MIC A Niger 1); 8 ng/mL (≈ 0.0213 µM) in the assay with A Terreus 49.
For the molecule `O=C(Nc1ccc(Cl)cc1)C(=O)c1c(-c2ccccc2)cc2ccccn12` [Example 281, N-(4-Chloro-phenyl)-2-oxo-2-(2-phenyl-indolizin-3-yl)-acetamide], the MIC turned out to be 0.25 µg/mL (≈ 0.667 µM) in assay [1]; 0.031 µg/mL (≈ 0.0827 µM) in the assay on Aspergillus terreus (read-out: MIC A Terreus 4); 0.12 µg/mL (≈ 0.32 µM) in assay [2]; 0.031 µg/mL (≈ 0.0827 µM) in the assay on Aspergillus flavus (read-out: MIC A Flavus 01); 0.031 µg/mL (≈ 0.0827 µM) in the assay with Aspergillus niger (read-out: MIC A Niger 1); 8 ng/mL (≈ 0.0213 µM) with A Terreus 49.
